Assay [1] deals with E. faecalis. Briefly: Minimum Inhibitory Concentration (MIC) assay, E. faecalis. It is filed as cell-based, Enterococcus faecalis. As to conditions: for MIC: first figure of MIC/MBC, read-out: MIC for E. faecalis; for Growth inhibition of the pathogen of interest compared to the compound of Example 14 in WO 2018/229141: conclusion from Table 3 (E. faecalis and MRSA). As for the experimental part:
(§1) The cultures (200 μl) were incubated at 37° C. for 24 h. […] The MIC was measured in micromolar concentration, i.e. μM. Objectively, this was determined by measuring the optical density (i.e. OD) of the test cultures at 600 nm using a spectrophotometer. As used herein, OD600 stands for optical density at a wavelength of 600 nm (i.e. 600 nanometers).

In assay [2] the test system is MRSA. Briefly: Minimum Inhibitory Concentration (MIC) assay, MRSA. The note with it: no antibiotic, 24 h, 37° C., n.d. = activity not observed at the concentrations tested, read-out: MIC for MRSA. The format is cell-based, Methicillin-resistant Staphylococcus aureus. The protocol:
as §1

Assay [3] relates to E. faecalis OG1RF. Briefly: Combined activity with gentamicin, vancomycin or ampicillin, E. faecalis OG1RF. It is filed as cell-based, Enterococcus faecalis. The note with it: gentamicin 16 μg/ml; for Synergistic effect when combined with gentamicin: 24 h; for E. faecalis activity, combination with gentamicin compared to gentamicin alone, compound alone and comparative example alone / E. faecalis activity, combination with gentamicin compared to the combination of the comparative example and gentamicin: subinhibitory compound 1-4 μM, OD600 24 h. The protocol: […]. The concentrations used in the experiments with E. faecalis OG1RF were 16 μg/ml gentamicin, 1 μg/ml vancomycin or 1 μg/ml ampicillin. In experiments where combinations were tested against MRSA 1369, 0.05 μg/ml gentamicin, 1 μg/ml vancomycin or 16 μg/ml ampicillin was used.
Bacterial cultures (190 μl) at a starting OD=0.001 at OD600 were incubated together with either subinhibitory concentrations of gentamicin/vancomycin/ampicillin or compound alone, or a combination of the two. The cultures (200 μl) were incubated at 37° C. for 24 h. A control sample without compound and gentamicin/vancomycin/ampicillin but containing compound vehicle (DMSO) and gentamicin/vancomycin/ampicillin vehicle (MQ water) was performed the same way. After 24 h, the effect on bacterial growth compared to untreated control samples was determined by measuring optical density at 600 nm with a spectrophotometer.
[…]. MIC/MBC values for the compounds administered alone are also shown for comparison. Unless otherwise stated, the compound was provided in a concentration of 1 μM.

In assay [4] the test system is MRSA. Briefly: Minimum Bactericidal Concentration (MBC) assay, MRSA. The note with it: compound alone, no antibiotic, MIC cultures plated on BHI, second figure of MIC/MBC, n.d. = activity not observed at the concentrations tested; for MBC for MRSA: Table 3; for MBC: Staphylococcus aureus, MRSA, read-out: MBC for MRSA, Table 3.
Assay [5] relates to E. faecalis. Briefly: Minimum Bactericidal Concentration (MBC) assay, E. faecalis. The note with it: for MBC for E. faecalis: second figure of MIC/MBC; for MBC: Enterococcus faecalis, read-out: MBC for E. faecalis.
The mark [6] stands for this setting: Enterococcus faecalis, Table 4, compound administered alone, n.d. = activity not observed.
[7] abbreviates: Table 3, compound alone, no antibiotic, 24 h, 37° C., OD600, n.d. = activity not observed at the concentrations tested.
Where [8] appears, read: Table 3, compound alone, OD600, first figure of MIC/MBC.
[9] abbreviates: Table 3, compound alone, no antibiotic, MIC cultures plated on BHI, n.d. = activity not observed at the concentrations tested.
The mark [10] stands for this setting: Table 4, compound administered alone, n.d. = activity not observed.
Setting [11] is: compound 1 μM, n.d. = activity not observed.
Setting [12] is: Enterococcus faecalis, 24 h, Table 3, compound alone, no antibiotic, 24 h, 37° C., OD600, n.d. = activity not observed at the concentrations tested.
The mark [13] stands for this setting: Staphylococcus aureus, MRSA, Table 3, compound alone, OD600, first figure of MIC/MBC.

Values after ≈ are worked out from the molar mass of the structure shown. Where two headings read alike, the source gives them in different places.

In the case of `O=C(O)C12C[C@@H](c3cccc(C(F)(F)F)c3)C1Sc1c(C3CC3)c(Cc3cccc4ccccc34)cc(=O)n12` (single isomer, unassigned) [Example 1], the values for the MIC in assay [1] (setting [6]), in assay [1] (setting [7]) and in assay [2] (setting [8]) were 10 µM (≈ 5.48 µg/mL), 10 µM (≈ 5.48 µg/mL) and 5 µM (≈ 2.74 µg/mL), respectively. In assay [3] (compound 2 μM), the “Synergistic effect when combined with gentamicin” value (from here on “Synergistic effect when combined”) is “Yes”. Besides, in assay [4], the “MBC for MRSA” value was determined as 10 µM. In assay [5] (setting [9]), the “MBC for E. faecalis” value is 25 µM.
As for `O=C(O)C12C[C@@H](c3cccc(C(F)(F)F)c3)C1Sc1c(C3CC3)c(Cc3cccc4ccccc34)cc(=O)n12` (single isomer, unassigned) [Example 2], the MIC came out at 10 µM (≈ 5.48 µg/mL) in assay [1] (setting [7]), 10 µM (≈ 5.48 µg/mL) in assay [1] (setting [10]) and 5 µM (≈ 2.74 µg/mL) in assay [2] (setting [8]). Besides, the “OD600 at 24 h when combined with gentamicin” value (from here on “OD600 at 24 h when combined”) in assay [3] (compound 1 μM) is reported as “OD600 = 0.1”. For the same molecule, in assay [3] (setting [11]), the “Synergistic effect when combined” value is given as “Yes”. In assay [4], the “MBC for MRSA” value amounted to 10 µM.
Consider `O=C(O)C12C[C@@H](c3cccc(C(F)(F)F)c3)C1Sc1c(C3CC3)c(Cc3cccc4ccccc34)cc(=O)n12` (single isomer, unassigned) [Example 3], for which the MIC was 10 µM (≈ 5.48 µg/mL) in assay [1] (setting [12]), 10 µM (≈ 5.48 µg/mL) in assay [1] (setting [10]) and 5 µM (≈ 2.74 µg/mL) in assay [2] (setting [13]). Further, the “OD600 at 24 h when combined” value in assay [3] (compound 1 μM) is recorded as “OD600 = 0.35 at 24 h”. The “Synergistic effect when combined” value in assay [3] (setting [11]) was “Yes”. In addition, the MBC turned out to be 5 µM (≈ 2.74 µg/mL) in assay [4] and 25 µM (≈ 13.7 µg/mL) in assay [5]. Moreover, the “MBC for E. faecalis” value in assay [5] (setting [10]) was found to be 25 µM.
Regarding `CN(C)c1c(Cc2cccc3ccccc23)c(C2CC2)c2n(c1=O)C1(C(=O)O)C[C@@H](c3cccc(C(F)(F)F)c3)C1S2` (some centres unmarked) [Example 5], the MIC in assay [1] (setting [12]) was 5 µM (≈ 2.95 µg/mL); in assay [1] (setting [6]) it was 5 µM (≈ 2.95 µg/mL); in assay [2] (setting [13]), 3 µM (≈ 1.77 µg/mL). In assay [1] (compound alone), the “Growth inhibition of the pathogen of interest compared to the compound of Example 14 in WO 2018/229141” value is “substantially similar extent or to a higher extent”. In addition, the “OD600 at 24 h when combined” value in assay [3] (compound 1 μM) is “OD600 = 0”. In addition, the “Synergistic effect when combined” value in assay [3] (setting [11]) is “Yes”. In addition, in assay [3], the “E. faecalis activity, combination with gentamicin compared to gentamicin alone, compound alone and comparative example alone” value is “much larger extent”. For the same molecule, in assay [3], the “E. faecalis activity, combination with gentamicin compared to the combination of the comparative example and gentamicin” value was “much larger extent”. Moreover, the MBC in assay [4] was determined as 4 µM (≈ 2.36 µg/mL); in assay [5], 25 µM (≈ 14.8 µg/mL).
As for `O=C(O)C12C[C@@H](c3ccc(C(F)(F)F)cc3)C1Sc1c(C3CC3)c(Cc3cccc4ccccc34)cc(=O)n12` (some centres unmarked) [Example 8], the minimum inhibitory concentration (MIC) in assay [1] (setting [12]) and in assay [2] (setting [13]) was 5 µM (≈ 2.74 µg/mL) throughout. Besides, the “Growth inhibition of the pathogen of interest compared to the compound of Example 14 in WO 2018/229141” value in assay [1] (compound alone) was “substantially similar extent or to a higher extent”. Moreover, in assay [4], the MBC came out at 10 µM (≈ 5.48 µg/mL).
As to `O=C(O)C12C[C@@H](c3cccc(Cl)c3)C1Sc1c(C3CC3)c(Cc3cccc4ccccc34)cc(=O)n12` (some centres unmarked) [Example 9], the MIC in assay [1] (setting [6]), in assay [1] (setting [7]) and in assay [2] (setting [13]) was 5 µM (≈ 2.57 µg/mL) throughout. Further, the “Growth inhibition of the pathogen of interest compared to the compound of Example 14 in WO 2018/229141” value in assay [1] (compound alone) is recorded as “substantially similar extent or to a higher extent”. For the same molecule, the “OD600 at 24 h when combined” value in assay [3] (compound 1 μM) is “OD600 = 0.1”. In assay [3] (setting [11]), the “Synergistic effect when combined” value was “Yes”. Also, in assay [4], the “MBC for MRSA” value was 1 µM. For the same molecule, the MBC in assay [5] was found to be 25 µM (≈ 12.9 µg/mL). Also, the “MBC for E. faecalis” value in assay [5] (setting [10]) was 25 µM.
On to `O=C(O)C12C[C@@H](c3cccc(Cl)c3)C1Sc1c(C3CC3)c(Cc3cccc4ccccc34)cc(=O)n12` (some centres unmarked) [Example 10], for which the MIC in assay [1] (setting [7]) is recorded as 10 µM (≈ 5.14 µg/mL); in assay [2] (setting [8]), 5 µM (≈ 2.57 µg/mL). Moreover, the “MBC for MRSA” value in assay [4] was 10 µM.
As for `O=C(O)C12C[C@@H](c3cccc(Cl)c3)C1Sc1c(C3CC3)c(Cc3cccc4ccccc34)cc(=O)n12` (some centres unmarked) [Example 11], the MIC in assay [1] (setting [7]) and in assay [2] (setting [8]) was 4 µM (≈ 2.06 µg/mL) throughout. Moreover, the “Growth inhibition of the pathogen of interest compared to the compound of Example 14 in WO 2018/229141” value in assay [1] (compound alone) was “substantially similar extent or to a higher extent”. Besides, the “E. faecalis activity, combination with gentamicin compared to gentamicin alone, compound alone and comparative example alone” value in assay [3] was “much larger extent”. The “MBC for MRSA” value in assay [4] was determined as 10 µM. Further, the “MBC for E. faecalis” value in assay [5] (setting [9]) was found to be 25 µM.
For `CN(C)c1c(Cc2cccc3ccccc23)c(C2CC2)c2n(c1=O)C1(C(=O)O)C[C@@H](c3cccc(Cl)c3)C1S2` (some centres unmarked) [Example 13], the values for the MIC in assay [1] (setting [12]), in assay [1] (setting [6]) and in assay [2] (setting [13]) were 3 µM (≈ 1.67 µg/mL), 3 µM (≈ 1.67 µg/mL) and 2 µM (≈ 1.11 µg/mL), respectively. Also, the “Growth inhibition of the pathogen of interest compared to the compound of Example 14 in WO 2018/229141” value in assay [1] (compound alone) is on record as “substantially similar extent or to a higher extent”. The “OD600 at 24 h when combined” value in assay [3] (compound 1 μM) is “OD600 = 0”. Further, the “Synergistic effect when combined” value in assay [3] (setting [11]) is “Yes”. In assay [3], the “E. faecalis activity, combination with gentamicin compared to gentamicin alone, compound alone and comparative example alone” value is recorded as “much larger extent”. Besides, the “E. faecalis activity, combination with gentamicin compared to the combination of the comparative example and gentamicin” value in assay [3] is listed as “much larger extent”. For the same molecule, the MBC is 4 µM (≈ 2.23 µg/mL) in assay [4] and 25 µM (≈ 13.9 µg/mL) in assay [5].

As a reminder, the MIC is the least concentration at which growth counts as inhibited. One may read the MBC as the lowest tested concentration that kills the bacteria rather than only halting them.

The values are drawn from patent US12503476B2, “Ring-fused 2-pyridone compounds, methods for preparation thereof and their use in the treatment and/or prevention of a disease involving gram-positive bacteria” (QURETECH BIO AB, priority 2020, dated 2025).
